melting point [°C] | SMILES
175 to 177 | O=C(NCC(=O)N1CCCC1)c1ccc(-c2ccc3nnn(Cc4ccc5ncccc5c4)c3n2)cc1F
130 to 134 | COC(=O)c1ccc(NC(C)=O)c(NC(=O)C(COC(C)=O)OC(C)=O)c1 (stereo unspecified)
156 to 157 | Nc1c(Cl)ncnc1NCCc1ccccc1
216 | CC(C)(C)c1cccc(S(=O)(=O)n2c(Cc3ccc(C(=O)O)cc3)cc3c(Cl)c(Cl)ccc32)c1
133 to 135 | COc1cccc([C@H]2O[C@H](CC(=O)NS(=O)(=O)CCCO)C(=O)N(CC(C)(C)CO)c3ccc(Cl)cc32)c1OC
211 to 212 | O=C1NN=C(c2ccc(C3CCCCC3)cc2)C2CC12 (stereo unspecified)
189 to 192 | O=C1c2ccncc2C(=O)c2c(F)ccc(O)c21
130 to 135 | OCc1cn(-c2ccc(F)c(Cl)c2)cn1
95 to 97 | COC(=O)COc1cccc2c(CCN=[N+]=[N-])coc12
87 to 90 | Cc1oc(-c2ccccc2)nc1CCOc1ccc(CC(Nc2ccccc2C(=O)c2cccc(CO)c2)C(=O)O)cc1 (stereo unspecified)
94 to 95 | CCOP(=O)(CNc1ccc(Cl)cc1[N+](=O)[O-])OCC
139 to 140 | O=C(NCC1CC(=O)N(Cc2ccccc2)C1)Nc1ccc(Cl)cc1 (stereo unspecified)
112 to 116 | CC(C)C(N=C(NN)NN)C(=O)O (stereo unspecified)
107 to 108 | COC(=O)c1ccc(NCc2ccc(F)cc2)cn1
228 | O=C(N[C@H]1CC[C@H](CCN2CCC(c3cccc4c3CCO4)CC2)CC1)c1ccc(C(F)(F)F)cc1
119 to 122 | CSc1cc(C)nc(SC)c1NC(=O)CCCCCCCSc1nc2ccccc2o1
204 to 206 | CC(=O)N(c1cccc(C(=O)O)c1)c1cc(C(C)(C)C)c(O)c(C(C)(C)C)c1
93 to 95 | CC1(C)CCOC1(O)Cn1cncn1 (stereo unspecified)
133 to 135 | O=C(c1ccccc1F)C1(O)CCNCC1
121 to 122 | Cc1ccc(CCC(C)(C)NCC(O)c2cc3ccccc3o2)cc1 (stereo unspecified)
155 to 157 | Sc1ccc(OCc2ccccc2)nn1
210 to 212 | NN1C=NNC1=Cc1ccccc1O
118 to 119 | COCCOc1ccc(/C=C/C(=O)O)c(OCC2CC2)c1
148 to 150 | CN1C(=O)N(CC(CS(=O)(=O)c2ccc(-c3ccc(Cl)cc3)cc2)C(=O)O)C(=O)C1(C)C (stereo unspecified)
154 to 155 | Cc1oc(-c2ccccc2)nc1CCC(O)c1ccc(CC2OC(=O)NC2=O)cc1 (stereo unspecified)

melting point [°C] | SMILES
234 to 235 | Cc1cc(-c2nc3cc(F)cc(F)c3c(=O)[nH]2)cc(C)c1OCCN1CCCC1
186 to 188 | CCCCc1nc2ccc(NC(=O)C3CCCCC3C(=O)O)cc2n1Cc1ccc(-c2ccccc2C(=O)O)cc1 (stereo unspecified)
174 | CSC(CC(CCCl)C(=O)c1ccccc1)C(N)C(N)=O (stereo unspecified)
240 | COc1cc2c(cc1OC)C(=O)C(=NO)C2
263 to 265 | CC(=N)Nc1cccc(C(=N)N)c1
98 to 100 | Cc1cc2c(c(C)c1N)C(c1ccc(C(C)C)cc1)C(C)(C)O2 (stereo unspecified)
129 to 131 | COc1ccc(-c2c(C)c(NC(=O)CC(C)(C)C)c(C)c3c2OCC3c2ccc(C(C)C)cc2)cc1 (stereo unspecified)
52 to 54 | O=C(NCC1CCN(C[C@H]2COc3cccc(Cl)c3O2)CC1)c1cccnc1
175 to 176 | Cc1cccc(CCC(=O)c2ccccc2)c1NC(=O)CC1c2ccccc2Oc2ccccc21
197 to 199 | NC1C(O)C(CO)OC1n1ccc(=O)[nH]c1=O (stereo unspecified)
205 | C/C(=C\c1ccc2c(c1)OCO2)C(=O)O
> 285 | COc1cccc(Nc2nc(-c3ccccc3)c(C(=O)c3sc(Nc4cccc(OC)c4)nc3-c3ccccc3)s2)c1
122 to 124 | CC(C)(C)OC(=O)N1C(=O)CCC1c1ccc(Br)cc1 (stereo unspecified)
190 to 192 | Nc1nc2cc(Br)ccn2n1
75 to 77 | C#CC1(c2ccc(OC(F)F)c(OCC3CC3)c2)CCC(=O)CC1
56 to 58 | CCOC(=O)C(Cc1ccc(OCCN2CCC(C)(C)c3cc(C(=O)c4ccccc4)ccc32)cc1)OCC(F)(F)F (stereo unspecified)
130 to 131 | CCCc1ccc(S(=O)(=O)Nc2ccc3oncc3c2)cc1
67 to 68 | CC1(C)CC(=O)CCc2ccc(Br)cc21
262 to 267 | CC(=O)Nc1c(C(C)=O)[nH]c2cc(Cl)ccc12
68 to 70 | CC(=O)NC(Cc1c[nH]c2ccccc12)C(=O)C=Cc1cc(C(F)(F)F)cc(C(F)(F)F)c1 (stereo unspecified)
81 | COc1ccccc1C(=O)c1cccc(N)c1
180 to 182 | Cc1c(C(=O)O)ccc2c1OCO2
122 to 123 | Cc1oc(-c2ccco2)nc1COc1ccc(COc2nn(-c3ccccc3)cc2C=O)cn1
122 to 124 | O=C(Cc1ccc(Cl)cc1)Nc1ccc(-n2nc(C(F)(F)F)cc2C(F)(F)F)cc1
80 to 81 | Cn1nc(-c2ccccc2)c(N)c1-c1ccccc1

melting point [°C] | SMILES
142 to 143 | CNc1cc(S(=O)(=O)c2ccccc2)ccn1
213 to 216 | O=C(O)c1cc2cc(Cl)ccc2nc1N[C@@H](CO)Cc1ccccc1
171 to 173 | O=C(O)c1cc(S(=O)(=O)Oc2ccccc2-c2ccc(-c3c(Cc4ccccc4)oc4ccccc34)cc2)ccc1O
106 to 108 | CC(Br)c1ccc(-c2onc3ccccc23)cc1 (stereo unspecified)
121 to 125 | CCCCCCN(C[C@H]1CCC[C@H](CN(CCCCCC)C(=O)Nc2ccc(N(C)C)cc2)C1)C(=O)Nc1ccc(N(C)C)cc1 (relative stereo)
121 to 122 | C[C@H](NC(=O)OCc1ccccc1)C(=O)N[C@@H](Cc1ccccc1)C(=O)O
247 to 248 | O=C1C2=C(CCCC2)C(=O)N1c1ccc(Br)c(O)c1
240 | C=Cc1ccc(CSC2C(=O)N(c3c(Cl)cc(Cl)cc3Cl)N=C2Nc2cc(NC(C)=O)ccc2Cl)cc1 (stereo unspecified)
55 to 57 | COC(=O)C(Cl)=C(NC1CC1)C(C(=O)OC)C(=O)C(F)F (stereo unspecified)
141 to 142 | COc1ccc2c(C)c([N+](=O)[O-])ccc2c1C(F)(F)F
198 to 200 | Cc1cccc(C)c1-n1cc(C#N)c(=O)n(C)c1=O
177 to 180 | CCOC(=O)c1c(O)c2cnc(-c3ccccc3)nc2n(CC)c1=O
215 to 216 | C#Cc1cccc(NC(=O)c2cc(-c3ccc(F)cc3F)ccc2O)c1
82 to 86 | CCOc1ccc(C2C(=O)Oc3ccc(C)cc32)cc1 (stereo unspecified)
91 | COc1ccc2c(c1)CC(C(=O)NCCOc1ccc(C(=O)O)cc1)N2S(=O)(=O)c1ccc(-c2ccc(F)cc2F)cc1 (stereo unspecified)
> 300 | Cc1cccc2c1CCC2=NNC(=N)N
168 | CCCN1CCC=C(c2cccc3[nH]ccc23)C1
154 | COc1cc(OCCOc2ccc3ccccc3c2)cc(OC)c1C(=O)C(=O)O
62 | NS(=O)(=O)CCCCCCl
175 | O=C(CC1COC1)N[C@H]1CC[C@H](CCN2CCN(c3nccc4c3OCC4)CC2)CC1
138 | CCn1cnc2c(C#N)nc(Cl)cc21
125 to 126 | CS(=O)(=O)Oc1ccccc1C(=O)O
194 to 198 | COc1cc(OC)c(C(=O)O)c(C(F)(F)F)n1
138 | Cn1cnnc1C(OCCO)(c1ccc(F)cc1)c1cc2c3c(c1)c(-c1cccc(Cl)c1)cc(=O)n3CC2 (stereo unspecified)
136 to 138 | C(=CCN(C1CCCCC1)C1CCCCC1)CN(C1CCCCC1)C1CCCCC1

melting point [°C] | SMILES
92 to 93 | Nc1ccc(-c2cccnc2)c(C(F)(F)F)c1
187 to 190 | Cc1cc(Oc2ccc(C(=O)O)cc2)ccc1[N+](=O)[O-]
166 to 168 | CCOC(C)=C(C#N)C(=O)Nc1cccc(Cl)c1
199 to 203 | COc1ccc(S(=O)(=O)Nc2ccc(C)cc2)c2c1[nH]c1ccccc12
168 | CCNc1c(C#N)cnn1-c1c(F)c(F)c(C(F)(F)F)c(F)c1F
109 to 110 | CCCC(=O)Nc1cc(/C=C/C(=O)OC)n(C)c1
108 | O=C(O)CCNC(=O)C(=Cc1ccc(Oc2ccccc2)cc1)CS
192 | Cn1c(=O)cc(-c2nc(-c3ccccc3)cs2)c2cc(C(O)c3ccc(Cl)cc3)ccc21 (stereo unspecified)
160 | CCCCc1nc(Cl)c(CC(=O)OCC)c(Cc2ccc(-c3ccccc3-c3nnn[nH]3)cc2)n1
190 to 192 | O=C1Cc2cc(I)ccc2N1
250 to 252 | CC1(C)Oc2ccc(C#N)cc2[C@@H](NC2=C(F)C(=O)CC2)[C@@H]1O (relative stereo)
92 to 93 | CCOP(=O)(Cc1ccc(-c2nc3cccc(Cl)c3o2)cc1)OCC
150 to 153 | CN1CCc2cc(O)c(O)cc2C1C1(c2ccc3ccccc3c2)CCC1 (stereo unspecified)
144 to 147 | Cc1ccnc(NC(c2ccc(C(F)(F)F)cc2)c2ccc3cccnc3c2O)n1 (stereo unspecified)
133 to 135 | CC(Oc1c(-c2ccc(S(C)(=O)=O)cc2)cnn(CC(F)(F)F)c1=O)c1ccc(F)cc1 (stereo unspecified)
161 | CCN(CC)CCNc1ccc(C2C(C(=O)OC)=C(C)NC(C)=C2C(=O)OC)cc1[N+](=O)[O-]
91.5 to 92.5 | CCCCCC(Cc1ccc(OC)c(OCCc2ccccc2)c1)NC(=O)OC(C)(C)C (stereo unspecified)
93 to 96 | CCOC(=O)c1ccc(NCCc2cccs2)cc1
116 | CC(C)CNc1ccccc1CS(=O)c1nc2ncccc2[nH]1 (stereo unspecified)
284 to 286 | O=C1N=C(N2CCCCCCC2)SC1=Cc1cccc(-c2ccc(O)c(C34CC5CC(CC(C5)C3)C4)c2)c1
138 to 141 | CC(C(=O)NN)c1cn[nH]c1-c1ccc(-c2ccccc2)cc1O (stereo unspecified)
73 to 79 | COc1cc(-c2cccs2)ccc1C(=O)C=Cc1ccc(F)c(F)c1
102 to 105 | Nc1ncc(Cl)nc1Br

SMILES | melting point [°C]
CCCCC1(N(C)C)CC=C(c2[nH]c3ccccc3c2Cc2ccccc2)CC1 (stereo unspecified) | 107 to 115
CNC(=O)C1N=C(c2ccccc2)c2cc(Cl)ccc2NC1=O (stereo unspecified) | 294
CC(=O)O[C@H]1CCNC1=O | 85.5 to 87

— a melting point compilation (Tetko et al.; mined from patent text by program, amines drawn as free bases though some values may be those of a salt)
